Test results: patent publication US8258175B2, “Isoindolin-1-one derivatives” (Cancer Research Technology Limited, priority 2004, dated 2012)

Key:
[1] = molecular target: T1, MDM2-p53 interaction (Homo sapiens, UniProt Q00987); assay: ELISA assay of MDM2-p53 complex formation (MDM2 binding to immobilised IP3 p53-derived peptide)
T1 construct: made in house; host or cells: in vitro translation (cell-free)
Procedure: Streptavidin-coated 96-well plates are used to immobilise a biotin-tagged IP3 p53-derived peptide ([…]). This is a peptide analogue derived from the p53 binding site for MDM2 ([…]). […] Aliquots of MDM2 generated by in vitro translation are pre-incubated for 20 minutes at room temperature (i.e. 20-25° C.) with test compounds and controls, before transfer into the IP3-coated 96-well plates. Following a further incubation period of 90 minutes at 4° C., the plates are washed to remove unbound MDM2 and the residual bound MDM2 is detected using a primary monoclonal antibody (MDM2 Ab-1, clone IF2, Oncogene Research Products) and HRP-conjugated secondary antibody (Goat anti-mouse, Dako PO447). The HRP (horseradish peroxidase) is measured by a chemiluminescence reaction using standard reagents (Amersham Pharmacia™ RPN 2106) and an automatic injection 96-well plate illuminometer (EG & G Berthold Microplate LB 96V).
Compound NU8231 is currently included as a standard “lead compound” positive control. […] The AP peptide is included as a positive control for biological evaluation of the isoindolinones in the cell free binding assays.
All compounds are dissolved in DMSO and tested at three standard concentrations (initially 20 μM, 100 μM and 500 μM) in the presence of a fixed final concentration of 5% DMSO. The percentage inhibition of complex formation is expressed relative to a DMSO only control and an IC50, defined as the concentration required for 50% inhibition of MDM2-p53 complex formation, determined by interpolation.

[2] = n=3 independent determinations, 5% DMSO, interpolated from three standard concentrations

T1 sequence (Q00987 whole entry): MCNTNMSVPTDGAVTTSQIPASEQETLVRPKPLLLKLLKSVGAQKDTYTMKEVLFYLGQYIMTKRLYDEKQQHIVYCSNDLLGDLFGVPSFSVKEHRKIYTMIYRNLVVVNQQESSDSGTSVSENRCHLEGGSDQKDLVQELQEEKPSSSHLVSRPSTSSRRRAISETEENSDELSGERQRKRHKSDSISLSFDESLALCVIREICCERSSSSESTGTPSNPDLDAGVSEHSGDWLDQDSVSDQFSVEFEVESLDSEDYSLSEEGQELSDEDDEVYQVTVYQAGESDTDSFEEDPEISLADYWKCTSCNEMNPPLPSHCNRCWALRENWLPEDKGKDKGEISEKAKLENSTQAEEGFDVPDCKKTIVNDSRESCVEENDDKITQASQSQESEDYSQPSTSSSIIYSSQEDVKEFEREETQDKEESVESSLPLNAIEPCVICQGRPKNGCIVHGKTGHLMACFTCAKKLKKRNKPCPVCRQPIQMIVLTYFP

Structure (SMILES)	IC50 [1, 2] [nM]	melting point [°C]	IC50 ([1]; nM) [nM]
CCCN1C(=O)c2ccccc2C1(OCCCO)c1ccccc1 (stereo not drawn) [NU8033, 3-(3-Hydroxy-propoxy)-3-phenyl-2-propyl-2,3-dihydro-1H-isoindolin-1-one]	> 500000	–	–
O=C1c2ccccc2C(OCCc2ccccn2)(c2ccccc2)N1Cc1ccccc1 (stereo not drawn) [NU8133, 2-Benzyl-3-phenyl-3-(2-pyridin-2-yl-ethoxy)-2,3-dihydro-isoindolin-1-one]	206000 ± 130000	–	–
CC(C)COc1ccc(C2(NC(=O)c3ccccc3)c3ccccc3C(=O)N2CC2CCCCC2)cc1 (stereo not drawn) [NU8200, N-[2-Cyclohexylmethyl-1-(4-isobutoxyphenyl)-3-oxo-2,3-dihydro-1H-isoindolin-1-yl]benzamide]	123000 ± 30000	–	–
CCOc1ccc(C2(NC(=O)c3ccccc3)c3ccccc3C(=O)N2CC2CCCCC2)cc1 (stereo not drawn) [NU8201, N-[2-Cyclohexylmethyl 1-(4-ethoxyphenyl)-3-oxo-2,3-dihydro-1H-isoindolin-1-yl]benzamide]	209000 ± 28000	–	–
CSc1ccc(C2(NC(=O)c3ccccc3)c3ccccc3C(=O)N2CC2CCCCC2)cc1 (stereo not drawn) [NU8202, N-[2-Cyclohexylmethyl-1-(4-methylsulfanylphenyl)-3-oxo-2,3-dihydro-1H-isoindolin-1-yl]benzamide]	82000 ± 16000	–	–
O=C1c2ccccc2C(OCCNc2ccccc2)(c2ccccc2)N1Cc1ccccc1 (stereo not drawn) [NU8204, 2-Benzyl-3-phenyl-3-(2-phenylaminoethoxy)-2,3-dihydroisoindolin-1-one]	116000 ± 20000	–	–
COc1cc(COC2(c3ccccc3)c3ccccc3C(=O)N2Cc2ccccc2)cc(OC)c1O (stereo not drawn) [NU8205, 2-Benzyl-3-(4-hydroxy-3,5-dimethoxybenzyloxy)-3-phenyl-2,3-dihydro-isoindolin-1-one]	17900 ± 300	–	–
CCCOC1(c2ccccc2)c2ccccc2C(=O)N1CCO (stereo not drawn) [NU8206, 2-(2-Hydroxyethyl)-3-phenyl-3-propoxy-2,3-dihydroisoindolin-1-one]	> 500000	–	–
O=C1c2ccccc2C(OCCN2CCNCC2)(c2ccccc2)N1Cc1ccccc1 (stereo not drawn) [NU8211, 2-Benzyl-3-phenyl-3-(2-piperazin-1-ylethoxy)-2,3-dihydroisoindolin-1-one]	315000 ± 72000	–	–
CC(=O)NCCN1C(=O)c2ccccc2C1(OCc1ccc(C(C)(C)C)cc1)c1ccccc1 (stereo not drawn) [NU8213, N-{2-[1-(4-t-Butyl-benzyloxy)-3-oxo-1-phenyl-1,3-dihydro-isoindolin-2-yl]-ethyl}-acetamide]	14400 ± 300	–	–
CC(C)(C)c1ccc(COC2(c3ccccc3)c3ccccc3C(=O)N2CCc2cnc[nH]2)cc1 (stereo not drawn) [NU8214, 3-(4-t-Butylbenzyloxy)-2-[2-(3H-imidazol-4-yl)-ethyl]-3-phenyl-2,3-dihydroisoindolin-1-one]	214000 ± 56000	–	–
C=C(C)C(=O)OCCN1C(=O)c2ccccc2C1(NC(CO)C(O)c1ccccc1)c1ccccc1 (stereo not drawn) [NU8216, 2-Methylacrylic acid 2-[1-(2-hydroxy-1-hydroxymethyl-2-phenylethylamino)-3-oxo-1-phenyl-1,3-dihydroisoindolin-2-yl]ethyl ester]	103000 ± 43000	–	–
CCCN1C(=O)c2ccccc2C1(OCCc1ccccn1)c1ccccc1 (stereo not drawn) [NU8224, 3-Phenyl-2-propyl-3-(2-pyridin-2-yl-ethoxy)-2,3-dihydroisoindolin-1-one]	–	122.3 to 124.1	–
C=CCOc1c(OC)cc(COC2(c3ccc(Cl)cc3)c3ccccc3C(=O)N2CCC)cc1OC (stereo not drawn) [NU8232, 3-(4-Allyloxy-3,5-dimethoxybenzyloxy)-3-(4-chlorophenyl)-2-propyl-2,3-dihydroisoindolin-1-one]	264000 ± 38000	–	–
CCCN1C(=O)c2ccccc2C1(OCc1ccc(C(C)(C)C)cc1)c1ccc(OCOCC[Si](C)(C)C)cc1 (stereo not drawn) [NU8233, 3-(4-tert-Butylbenzyloxy)-2-propyl-3-[4-(2-trimethylsilanylethoxymethoxy)-phenyl]-2,3-dihydroisoindolin-1-one]	464000 ± 31000	–	–
CCCN1C(=O)c2ccccc2C1(OCCCO)c1ccc(OCOCC[Si](C)(C)C)cc1 (stereo not drawn) [NU8234, 3-(3-Hydroxypropoxy)-2-propyl-3-[4-(2-trimethylsilanylethoxymethoxy)-phenyl]-2,3-dihydroisoindolin-1-one]	476000 ± 24000	–	–
CCCN1C(=O)c2ccccc2C1(OCCc1ccccn1)c1ccc(OCOCC[Si](C)(C)C)cc1 (stereo not drawn) [NU8235, 2-Propyl-3-(2-pyridin-2-yl-ethoxy)-3-[4-(2-trimethylsilanylethoxymethoxy)-phenyl]-2,3-dihydroisoindolin-1-one]	312000 ± 22000	–	–
CCCN1C(=O)c2ccccc2C1(OCc1cc(OC)c(O)c(OC)c1)c1ccc(OCOCC[Si](C)(C)C)cc1 (stereo not drawn) [NU8236, 3-(4-Hydroxy-3,5-dimethoxybenzyloxy)-2-propyl-3-[4-(2-trimethylsilanylethoxy-methoxy)-phenyl]-2,3-dihydroisoindolin-1-one]	118000 ± 24000	–	–
COc1cc(COC2(c3ccc(OCOCC[Si](C)(C)C)cc3)c3ccccc3C(=O)N2Cc2ccccc2)cc(OC)c1O (stereo not drawn) [NU8238, 2-Benzyl-3-(4-hydroxy-3,5-dimethoxybenzyloxy)-3-[4-(2-trimethylsilanylethoxy-methoxy)phenyl]-2,3-dihydroisoindolin-1-one]	257000 ± 34000	–	–
C[Si](C)(C)CCOCOc1ccc(C2(O)c3ccccc3C(=O)N2Cc2ccccc2)cc1 (stereo not drawn) [NU8239, 2-Benzyl-3-hydroxy-3-[4-(2-trimethylsilanylethoxymethoxy)phenyl]-2,3-dihydroisoindol-1-one]	366000 ± 61000	–	–
O=C1c2ccccc2C(O)(c2ccc(Cl)cc2)N1CC1CC1 (stereo not drawn) [NU8265, 3-(4-Chlorophenyl)-2-cyclopropylmethyl-3-hydroxy-2,3-dihydroisoindolin-1-one]	> 20000	–	–

Second part, the compound after the results:

IC50 [1, 2] [nM]	melting point [°C]	IC50 ([1]; nM) [nM]	Structure (SMILES)
245000 ± 11000	–	–	O=C1c2ccccc2C(OCCCO)(c2ccccc2)N1Cc1ccccc1 (stereo not drawn) [NU8034, 2-Benzyl-3-(3-Hydroxy-propoxy)-3-phenyl-2,3-dihydro-1H-isoindolin-1-one]
92000 ± 11000	107 to 108	–	CC(C)(C)c1ccc(COC2(c3ccccc3)c3ccccc3C(=O)N2Cc2ccccc2)cc1 (stereo not drawn) [NU8113, 2-Benzyl-3-(4-tert-butyl-benzyloxy)-3-phenyl-2,3-dihydro-isoindolin-1-one]
187000 ± 38000	116.5 to 117.6	–	CCCN1C(=O)c2ccccc2C1(OCc1ccc(C(C)(C)C)cc1)c1ccc(Cl)cc1 (stereo not drawn) [NU8221, 3-(4-tert-Butyl-benzyloxy)-3-(4-chlorophenyl)-2-propyl-2,3-dihydroisoindolin-1-one]
456000 ± 44000	–	–	COc1ccc(COC2(c3ccccc3)c3ccccc3C(=O)N2Cc2ccccc2)cc1 (stereo not drawn) [NU8226, 2-Benzyl-3-(4-methoxybenzyloxy)-3-phenyl-2,3-dihydroisoindolin-1-one]
409000 ± 43000	–	–	CCCN1C(=O)c2ccccc2C1(OCc1ccccc1)c1ccc(Cl)cc1 (stereo not drawn) [NU8237, 3-Benzyloxy-3-(4-chlorophenyl)-2-propyl-2,3-dihydroisoindolin-1-one]
304000 ± 42000	–	–	C=CCOc1ccc(COC2(c3ccc(Cl)cc3)c3ccccc3C(=O)N2CCC)cc1 (stereo not drawn) [NU8240]
83000 ± 5000	–	–	C=CCOc1cc(COC2(c3ccc(Cl)cc3)c3ccccc3C(=O)N2CCC)ccc1OC (stereo not drawn) [NU8241, 3-(4-chlorophenyl)-3-(3-allyloxy-4-methoxy-benzyloxy)-2-propyl-2,3-dihydroisoindolin-1-one]
272000 ± 5000	–	–	C=CCOc1ccc(COC2(c3ccc(Cl)cc3)c3ccccc3C(=O)N2CCC)cc1OC (stereo not drawn) [NU8242, 3-(4-chlorophenyl)-3-(4-allyloxy-3-methoxy-benzyloxy)-2-propyl-2,3-dihydroisoindolin-1-one]
7700 ± 300	–	–	CCCN1C(=O)c2ccccc2C1(OCc1ccc(O)cc1)c1ccc(Cl)cc1 (stereo not drawn) [NU8243]
9500 ± 1900	–	–	CCCN1C(=O)c2ccccc2C1(OCc1ccc(OC)c(O)c1)c1ccc(Cl)cc1 (stereo not drawn) [NU8244]
23000 ± 4000	–	–	C#CCN1C(=O)c2ccccc2C1(OCc1cc(OC)c(O)c(OC)c1)c1ccc(Cl)cc1 (stereo not drawn) [NU8245, 3-(4-Chlorophenyl)-3-(4-hydroxy-3,5-dimethoxybenzyloxy)-2-prop-2-ynyl-2,3-dihydroisoindolin-1-one]
3000 ± 700	–	–	CCCN1C(=O)c2ccccc2C1(OC1CCC(O)C1)c1ccc(Cl)cc1 (stereo not drawn) [NU8253, 3-(4-Chlorophenyl)-3-(3-hydroxycyclopentyloxy)-2-propylisoindolin-1-one]
5500 ± 1700	–	–	O=C1c2ccccc2C(OC2CCC(O)C2)(c2ccc(Cl)cc2)N1CCc1ccccc1 (stereo not drawn) [NU8257, 3-(4-Chlorophenyl)-3-(3-hydroxycyclopentyloxy)-2-phenethylisoindolin-1-one]
–	–	700	O=C1c2ccccc2C(OC2CCC(O)C2)(c2ccc(Cl)cc2)N1Cc1ccc([N+](=O)[O-])cc1 (stereo not drawn) [NU8261, 3-(4-Chlorophenyl)-3-(3-hydroxycyclopentyloxy)-2-(4-nitrobenzyl)-2,3-dihydroisoindolin-1-one]
2400 ± 700	–	–	O=C1c2ccccc2C(OC2CCC(O)C2)(c2ccc(Cl)cc2)N1Cc1ccc(Cl)cc1 (stereo not drawn) [NU8274, 2-(4-Chlorobenzyl)-3-(4-chlorophenyl)-3-(3-hydroxycyclopentyloxy)isoindolin-1-one]
15400 ± 2300	–	–	O=C1c2ccccc2C(OC2CCC(O)C2)(c2ccc(Cl)cc2)N1CC1CC1 (stereo not drawn) [NU8280, 3-(4-Chlorophenyl)-2-cyclopropylmethyl-3-(3-hydroxycyclopentyloxy)-2,3-dihydro-isoindolin-1-one]
